Reference: US8889688B2, “Piperazines as antimalarial agents” (Actelion Pharmaceuticals Ltd., priority 2011, dated 2014)
Read-outs that look alike come from different tables or passages of the source.

Key:
[1] = system: P. berghei strain GFP-ANKA; assay: In vivo antimalarial efficacy study in infected NMRI mice; settings: Plasmodium berghei; female NMRI mice infected with P. berghei GFP-ANKA; single oral dose of 100 mg/kg 24 h after infection; parasitemia 48 h after drug treatment (day 3); read-out: Activity (inhibition of parasitemia) expressed as a percent relative to the control group
Description: In Vivo Antimalarial Efficacy Studies
In vivo antimalarial activity is assessed for groups of three female NMRI mice (20-22 g) intravenously infected on day 0 with P. berghei strain GFP-ANKA (0.2 mL heparinized saline suspension containing 2×10^7 parasitized erythrocytes). In control mice, parasitemia typically rises to approximately 40% by day 3 after infection. Compounds are formulated in Tween 80/ethanol (7%/3%) usually at concentrations of 10 mg/mL. Compounds are administered in a volume of 10 mL/kg orally as single doses (1×100 mg/kg, 24 h after infection). 48 h after drug treatment (day 3 post-infection), 1 μl tail blood is taken, resuspended in 1 mL PBS buffer and parasitemia determined with a FACScan (Becton Dickinson) by counting 100′000 red blood cells. Activity is calculated as the difference between the mean value of the control group and treated groups expressed as a percent relative to the control group.

[2] = system: erythrocytic stages of P. falciparum NF54; assay: Plasmodium falciparum in vitro assay, [3H] hypoxanthine incorporation; assay type: cell-based; settings: Plasmodium falciparum, Erythrocyte, 72 h, P. falciparum NF54 in human red blood cells, 48 h + 24 h incubation
Procedure, shortened: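 Cultures in human red blood cells (2.5% hematocrit, 0.3% parasitemia) were exposed to serially diluted compounds for 48 h at 37° C. under 4% CO2, 3% O2, 93% N2. [3H] hypoxanthine (0.5 μCi) was added for a further 24 h, incorporation counted by scintillation, and IC50 derived from sigmoidal inhibition curves.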

[3] = screening medium with Albumax (5 g/L), read-out: IC50 on NF54 (with Albumax)
[4] = screening medium with human serum (50% final concentration), read-out: IC50 on NF54 (with 50% Serum)

SMILES | inhibition in vivo at 100 mg/kg [1] | IC50 [2, 3] | IC50 [2, 4]
COc1ccc(C=CC(=O)N(Cc2ccc(N3CCN(C(C)=O)CC3)cc2)[C@@H](Cc2ccccc2)C(=O)N2CCN(Cc3ccc(N(C)CCO)cc3)CC2)cn1 [Example 52, (S)-N-[4-(4-Acetyl-piperazin-1-yl)-benzyl]-N-[1-benzyl-2-(4-{4-[(2-hydroxy-ethyl)-methyl-amino]-benzyl}-piperazin-1-yl)-2-oxo-ethyl]-3-(6-methoxy-pyridin-3-yl)-acrylamide] | < 40% | 10 nM | 33 nM
CCc1ccc(C=CC(=O)N(Cc2ccc(N3CCN(C(C)=O)CC3)cc2)[C@@H](Cc2ccccc2)C(=O)N2CCN(Cc3ccc(Cl)cc3)CC2)cc1 [Example 40, (S)-N-[4-(4-Acetyl-piperazin-1-yl)-benzyl]-N-{1-benzyl-2-[4-(4-chloro-benzyl)-piperazin-1-yl]-2-oxo-ethyl}-3-(4-ethyl-phenyl)-acrylamide] | 93.6% | 1.7 nM | 10.5 nM
CC(=O)N1CCN(c2ccc(CN(C(=O)C=Cc3ccc(C(F)(F)F)cc3)[C@@H](Cc3ccccc3)C(=O)N3CCN(Cc4ccccc4)CC3)cc2)CC1 [Example 1, (S)-N-[4-(4-Acetyl-piperazin-1-yl)-benzyl]-N-[1-benzyl-2-(4-benzyl-piperazin-1-yl)-2-oxo-ethyl]-3-(4-trifluoromethyl-phenyl)-acrylamide, reference compound] | < 40% | 5.1 nM | 27.6 nM
CCOc1ccc(C=CC(=O)N(Cc2ccc(N3CCN(C(C)=O)CC3)cc2)[C@@H](Cc2ccccc2)C(=O)N2CCN(Cc3ccc(Cl)cc3)CC2)cc1 [Example 35, (S)-N-[4-(4-Acetyl-piperazin-1-yl)-benzyl]-N-{1-benzyl-2-[4-(4-chloro-benzyl)-piperazin-1-yl]-2-oxo-ethyl}-3-(4-ethoxy-phenyl)-acrylamide] | 98.7% | 2.9 nM | 9 nM
CC(=O)Nc1ccc(C=CC(=O)N(Cc2ccc(N3CCN(C(C)=O)CC3)cc2)[C@@H](Cc2ccccc2)C(=O)N2CCN(Cc3ccc(C#N)cc3)CC2)cc1 [Example 27, (S)-3-(4-Acetylamino-phenyl)-N-[4-(4-acetyl-piperazin-1-yl)-benzyl]-N-{1-benzyl-2-[4-(4-cyano-benzyl)piperazin-1-yl]-2-oxo-ethyl}-acrylamide] | < 40% | 1.8 nM | 12.9 nM
CCOc1ccc(C=CC(=O)N(Cc2ccc(N3CCN(C(C)=O)CC3)cc2)[C@@H](Cc2ccccc2)C(=O)N2CCN(Cc3ccc(N(C)C)cc3)CC2)cc1 [Example 15, (S)-N-[4-(4-Acetyl-piperazin-1-yl)-benzyl]-N-{1-benzyl-2-[4-(4-dimethylamino-benzyl)-piperazin-1-yl]-2-oxo-ethyl}-3-(4-ethoxy-phenyl)-acrylamide] | 99% | 1.7 nM | 6.8 nM
CCc1ccc(C=CC(=O)N(Cc2ccc(N3CCN(C(C)=O)CC3)cc2)[C@@H](Cc2ccccc2)C(=O)N2CCN(Cc3ccc(N(C)CCO)cc3)CC2)cc1 [Example 59, (S)-N-[4-(4-Acetyl-piperazin-1-yl)-benzyl]-N-[1-benzyl-2-(4-{4-[(2-hydroxy-ethyl)-methyl-amino]-benzyl}-piperazin-1-yl)-2-oxo-ethyl]-3-(4-ethyl-phenyl)-acrylamide] | 96.5% | 1.6 nM | 3.8 nM
CC(=O)N1CCN(c2ccc(CN(C(=O)C=Cc3ccc(S(C)(=O)=O)cc3)[C@@H](Cc3ccccc3)C(=O)N3CCN(Cc4ccc(N(C)CCO)cc4)CC3)cc2)CC1 [Example 55, (S)-N-[4-(4-Acetyl-piperazin-1-yl)-benzyl]-N-[1-benzyl-2-(4-{4-[(2-hydroxy-ethyl)-methyl-amino]-benzyl}-piperazin-1-yl)-2-oxo-ethyl]-3-(4-methanesulfonyl-phenyl)-acrylamide] | < 40% | 7.5 nM | 14.8 nM
CCCOc1ccc(C=CC(=O)N(Cc2ccc(N3CCN(C(C)=O)CC3)cc2)[C@@H](Cc2ccccc2)C(=O)N2CCN(Cc3ccc(S(=O)(=O)CC)cc3)CC2)cc1 [Example 48, (S)-N-[4-(4-Acetyl-piperazin-1-yl)-benzyl]-N-{1-benzyl-2-[4-(4-(ethylsulfonyl)-benzyl)-piperazin-1-yl]-2-oxo-ethyl}-3-(4-propoxyphenyl)-acrylamide] | 99% | 0.5 nM | 1.6 nM
CC(=O)N1CCN(c2ccc(CN(C(=O)C=Cc3ccc(S(C)(=O)=O)cc3)[C@@H](Cc3ccccc3)C(=O)N3CCN(Cc4ccc(N(C)C)cc4)CC3)cc2)CC1 [Example 16, (S)-N-[4-(4-Acetyl-piperazin-1-yl)-benzyl]-N-{1-benzyl-2-[4-(4-dimethylamino-benzyl)-piperazin-1-yl]-2-oxo-ethyl}-3-(4-methanesulfonyl-phenyl)-acrylamide] | 85.9% | 5.5 nM | 13.3 nM
CCc1ccc(C=CC(=O)N(Cc2ccc(N3CCN(C(C)=O)CC3)cc2)[C@@H](Cc2ccccc2)C(=O)N2CCN(Cc3ccccc3)CC2)cc1 [Example 2, (S)-N-[4-(4-Acetyl-piperazin-1-yl)-benzyl]-N-[1-benzyl-2-(4-benzyl-piperazin-1-yl)-2-oxo-ethyl]-3-(4-ethyl-phenyl)-acrylamide] | 94.1% | 2 nM | 10 nM
CC(=O)N1CCN(c2ccc(CN(C(=O)C=Cc3ccc(C(C)C)cc3)[C@@H](Cc3ccccc3)C(=O)N3CCN(Cc4ccc(N(C)C)cc4)CC3)cc2)CC1 [Example 23, (S)-N-[4-(4-Acetyl-piperazin-1-yl)-benzyl]-N-{1-benzyl-2-[4-(4-dimethylamino-benzyl)-piperazin-1-yl]-2-oxo-ethyl}-3-(4-isopropyl-phenyl)-acrylamide] | 99.1% | 1.3 nM | 9.5 nM
CC(=O)N1CCN(c2ccc(CN(C(=O)C=Cc3ccc(OC(C)C)cc3)[C@@H](Cc3ccccc3)C(=O)N3CCN(Cc4ccc(S(C)(=O)=O)cc4)CC3)cc2)CC1 [Example 44, (S)-N-[4-(4-Acetyl-piperazin-1-yl)-benzyl]-N-{1-benzyl-2-[4-(4-(methylsulfonyl)-benzyl)-piperazin-1-yl]-2-oxo-ethyl}-3-(4-isopropoxyphenyl)-acrylamide] | 99% | 0.4 nM | 2.8 nM
CC(=O)N1CCN(c2ccc(CN(C(=O)C=Cc3ccc(OC(C)C)cc3)[C@@H](Cc3ccccc3)C(=O)N3CCN(Cc4ccc(C#N)cc4)CC3)cc2)CC1 [Example 29, (S)-N-[4-(4-Acetyl-piperazin-1-yl)-benzyl]-N-{1-benzyl-2-[4-(4-cyano-benzyl)-piperazin-1-yl]-2-oxo-ethyl}-3-(4-isopropoxy-phenyl)-acrylamide] | 99.2% | 1.1 nM | 3.7 nM
CCCOc1ccc(C=CC(=O)N(Cc2ccc(N3CCN(C(C)=O)CC3)cc2)[C@@H](Cc2ccccc2)C(=O)N2CCN(Cc3ccc(C#N)cc3)CC2)cc1 [Example 28, (S)-N-[4-(4-Acetyl-piperazin-1-yl)-benzyl]-N-{1-benzyl-2-[4-(4-cyano-benzyl)-piperazin-1-yl]-2-oxo-ethyl}-3-(4-propoxy-phenyl)-acrylamide] | 99.3% | 1.1 nM | 3.6 nM
